Test results: paper PMC11790956, “A microscale thermophoresis-based enzymatic RNA methyltransferase assay enables the discovery of DNMT2 inhibitors” (Communications Chemistry, 2025)
pIC50: −log10 of the molar value. “Also recorded” adds a separate entry of the source.

How the values were obtained:
[1] = molecular target: T1, DNMT2 (Homo sapiens, UniProt O14717); experiment: DNMT2 enzymatic split aptamer MST assay; format: biochemical
T1 construct: made in house
T1 sequence (O14717 1-391): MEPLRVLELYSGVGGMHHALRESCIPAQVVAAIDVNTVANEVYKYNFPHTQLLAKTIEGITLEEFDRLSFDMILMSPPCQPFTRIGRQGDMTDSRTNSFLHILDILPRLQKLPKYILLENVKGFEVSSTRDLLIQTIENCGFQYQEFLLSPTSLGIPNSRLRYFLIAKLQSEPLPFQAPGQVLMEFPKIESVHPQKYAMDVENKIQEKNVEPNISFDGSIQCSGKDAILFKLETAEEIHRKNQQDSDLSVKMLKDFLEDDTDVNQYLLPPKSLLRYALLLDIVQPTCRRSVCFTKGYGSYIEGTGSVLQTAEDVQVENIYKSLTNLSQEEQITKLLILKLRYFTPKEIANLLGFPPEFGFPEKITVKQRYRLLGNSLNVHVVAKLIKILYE
Protocol: The enzyme kinetics were characterized by calculating the Michaelis-Menten constant (KM or kcat) and inhibitory constants (IC50 resp. KI).
The final drug compound concentration was adjusted to 500 µM for the epigenetic drug library (Fig. 5) resp. 100 µM for the covalent compound library (Fig. 6), and the enzymatic reaction was incubated for 30 min at 25 °C. Subsequently, enzymatic reactions were terminated by the addition of 0.3% SDS, and the product SAH was quantified by the split aptamer MST assay (Figs. 5A, B, 6A).
For MTase assay detection by MST, enzyme reaction mixtures with a total volume of 10 µL per single treatment condition were prepared and incubated for the desired reaction times. Inhibitors were added from corresponding DMSO stocks to a final DMSO concentration of max. 5%. Afterward, reactions were quenched at a given reaction time by the addition of 1 µL sodium dodecyl sulfate (SDS, solution, 3% in water) per 10 µL reaction mixture and mixed well by pipetting. Subsequently, 1 µL of a 10× aptamer-containing detection master mix (200 mM Tris, pH 8.5, 200 mM MgCl2, 3 M NaCl, 10 mM urea, 0.2% Brij, 500 nM aptaSAH1, 500 nM aptaSAH2) was added to the quenched MTase reaction and incubated for 1 h at room temperature. Reaction mixtures were loaded directly to MST capillaries without further purification or sample processing.
MST experiments were carried out in at least technical triplicates using a Monolith NT.115 instrument (NanoTemper Technologies) using Monolith standard capillaries and the blue excitation laser setup. The instrument was calibrated according to the manufacturer’s instructions. General settings were applied for all MST experiments as follows: manual temperature control: 25 °C, fluorescence measurement before MST: 4 s, MST (IR laser) on: 20 s, fluorescence after MST: 2 s, delay: 25 s. The laser power was adjusted to optimize the signal-to-noise ratio and the fluorescence signal. LED and MST power settings were chosen individually for each sample by adjusting the LED power to yield fluorescence signals of at least 300 units (blue laser) or 3000 units (red laser) and the MST power to achieve an appropriate thermophoretic response (standard setting: medium MST power).

[2] = molecular target: T2, METTL3/14 (Homo sapiens, UniProt Q86U44); experiment: METTL3/14 enzymatic split aptamer MST assay; format: biochemical; details: 500 µM of hit compound, Fig. 5D
T2 construct: purchased BPS Bioscience BPS-100105
Protocol: Specifically, we studied the m^6A MTase METTL3/14 and the m^7G MTase S. aureus TrmD.
For MTase assay detection by MST, enzyme reaction mixtures with a total volume of 10 µL per single treatment condition were prepared and incubated for the desired reaction times. Inhibitors were added from corresponding DMSO stocks to a final DMSO concentration of max. […] Afterward, reactions were quenched at a given reaction time by the addition of 1 µL sodium dodecyl sulfate (SDS, solution, 3% in water) per 10 µL reaction mixture and mixed well by pipetting. […]
MST experiments were carried out in at least technical triplicates using a Monolith NT.115 instrument (NanoTemper Technologies) using Monolith standard capillaries and the blue excitation laser setup. […] General settings were applied for all MST experiments as follows: manual temperature control: 25 °C, fluorescence measurement before MST: 4 s, MST (IR laser) on: 20 s, fluorescence after MST: 2 s, delay: 25 s. The laser power was adjusted to optimize the signal-to-noise ratio and the fluorescence signal. LED and MST power settings were chosen individually for each sample by adjusting the LED power to yield fluorescence signals of at least 300 units (blue laser) or 3000 units (red laser) and the MST power to achieve an appropriate thermophoretic response (standard setting: medium MST power). […]

[3] = molecular target: T1, DNMT2; experiment: DNMT2 fluorescence polarization (FP) FTAD displacement assay; format: binding
Protocol: Fluorescence polarization assays were conducted with a similar sample composition as described for FTAD-MST assays as described previously. Triplicates (50 µL) were prepared in black 96-well half-area plates (Greiner) and measured using a Spark 10 M plate reader (Tecan) equipped with polarization filters coupled to a monochromator setup (FTAD: λex = 480 nm, λem = 530 nm). Polarization values (in mP) were calculated from polarization-specific parallel and orthogonal fluorescence intensities according to the Tecan in-built calculation routine.
Reversibility of alexidine binding to DNMT2 was evaluated with a modified FP-assay setup. Briefly, reaction mixtures containing alexidine were prepared in black 96-well half-area plates, and after FP measurement, the volume of one well (50 µL) was collected and applied to a Zeba™ Spin Desalting Column (7 K MWCO) while 5 µL of a 10x DNMT2 buffer solution (500 mM HEPES, 1.5 M NaCl, 10 mM dithiothreitol (DTT), 1% PEG-8000, 0.5% polysorbate-20, pH 7.4) was placed in the collection tube attached to the SEC column. This procedure separated alexidine and restored the initial composition of the DNMT2 assay solution.
Kinetic FP assays were performed to assess the time-dependent inactivation of DNMT2 treated with covalent inhibitors. Briefly, samples contained 2 µM DNMT2, 100 nM FTAD probe, and 1.3% DMSO in DNMT2 MST buffer. Inhibitors were added from DMSO stocks. Negative inhibition control was performed by mock treatment with DMSO. Reactions were initiated by the addition of the Cpd 11 (adamantanyl-acryloylurea) and monitored for 120 min at 25 °C in a Tecan Spark 10 M plate reader (FTAD: λex = 480 nm, λem = 530 nm) The irreversible inhibition kinetics were analyzed as described previously[35],[36].

[4] = molecular target: T3, NSUN2 (Homo sapiens, UniProt Q08J23); experiment: NSUN2 enzymatic split aptamer MST assay (selectivity panel); format: biochemical; details: 500 µM of hit compound, Fig. 5D
T3 construct: made in house
Source text: Next, we investigated the target selectivity of all hit compounds by inhibition experiments using the MTases characterized in this study (DNMT2, METTL3/14, TrmD, and NSUN2) as a selectivity panel. […] While Cpd3 (alexidine) could be identified as a DNMT2 inhibitor during MST- and FP- experiments, the ligand’s hydrophobic nature raised the concern this compound might be an aggregator of DNMT2. To exclude this possibility, we investigated the reversibility of alexidine binding using the FP displacement assay and separation of the alexidine ligand by small-scale size-exclusion chromatography (SEC)[34].
NSUN2: 50 mM Tris-HCl, pH 7.5, 5 mM EDTA, 5 mM MgCl2, 1.5 mM DTT. 200 nM NSUN2, 1 µM SAM, 250 ng/µL tRNA (total from E. coli). […]
MST experiments were carried out in at least technical triplicates using a Monolith NT.115 instrument (NanoTemper Technologies) using Monolith standard capillaries and the blue excitation laser setup. […] General settings were applied for all MST experiments as follows: manual temperature control: 25 °C, fluorescence measurement before MST: 4 s, MST (IR laser) on: 20 s, fluorescence after MST: 2 s, delay: 25 s. The laser power was adjusted to optimize the signal-to-noise ratio and the fluorescence signal. […] MST measurements were analyzed using the NT analysis software (version 1.5.41) and exported for statistical analysis and plotting in GraphPad Prism 7.01.

T3 sequence (Q08J23 whole entry, species assumed): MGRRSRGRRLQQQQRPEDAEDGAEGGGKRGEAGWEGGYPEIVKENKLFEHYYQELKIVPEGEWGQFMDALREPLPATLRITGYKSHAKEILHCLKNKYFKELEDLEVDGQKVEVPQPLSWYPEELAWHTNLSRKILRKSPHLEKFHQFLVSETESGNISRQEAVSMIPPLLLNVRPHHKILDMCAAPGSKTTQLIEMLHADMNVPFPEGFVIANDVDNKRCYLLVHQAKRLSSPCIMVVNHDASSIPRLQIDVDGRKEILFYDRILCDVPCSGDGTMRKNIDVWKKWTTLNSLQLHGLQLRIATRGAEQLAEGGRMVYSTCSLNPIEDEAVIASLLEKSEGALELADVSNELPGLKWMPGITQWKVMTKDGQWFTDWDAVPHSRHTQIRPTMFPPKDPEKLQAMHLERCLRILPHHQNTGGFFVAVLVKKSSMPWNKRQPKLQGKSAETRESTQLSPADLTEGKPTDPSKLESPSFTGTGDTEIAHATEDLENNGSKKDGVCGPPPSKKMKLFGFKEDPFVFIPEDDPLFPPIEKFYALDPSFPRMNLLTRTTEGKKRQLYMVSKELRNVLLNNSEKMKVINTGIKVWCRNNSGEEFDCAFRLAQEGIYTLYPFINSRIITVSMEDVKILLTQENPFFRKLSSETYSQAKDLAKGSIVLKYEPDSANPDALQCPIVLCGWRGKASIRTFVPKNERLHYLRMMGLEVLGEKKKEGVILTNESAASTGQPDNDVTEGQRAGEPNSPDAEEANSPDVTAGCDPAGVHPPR
T2 sequence (Q86U44 2-580 limits assumed): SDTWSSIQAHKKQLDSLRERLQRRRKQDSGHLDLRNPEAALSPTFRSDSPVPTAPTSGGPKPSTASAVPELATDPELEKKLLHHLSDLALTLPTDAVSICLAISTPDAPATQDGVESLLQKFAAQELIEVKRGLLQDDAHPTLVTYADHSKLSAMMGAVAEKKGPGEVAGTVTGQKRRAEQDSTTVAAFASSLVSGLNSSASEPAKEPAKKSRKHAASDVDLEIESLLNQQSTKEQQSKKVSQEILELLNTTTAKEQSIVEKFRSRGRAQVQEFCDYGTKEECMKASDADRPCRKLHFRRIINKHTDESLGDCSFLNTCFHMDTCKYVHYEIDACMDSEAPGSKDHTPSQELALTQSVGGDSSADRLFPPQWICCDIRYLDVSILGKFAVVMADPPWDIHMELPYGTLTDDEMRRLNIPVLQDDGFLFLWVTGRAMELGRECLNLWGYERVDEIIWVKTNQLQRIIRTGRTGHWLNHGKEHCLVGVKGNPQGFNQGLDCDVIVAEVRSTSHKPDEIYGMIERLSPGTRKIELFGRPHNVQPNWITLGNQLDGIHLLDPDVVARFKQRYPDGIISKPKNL
T2 sequence (Q9HCE5 2-456 partner limits assumed): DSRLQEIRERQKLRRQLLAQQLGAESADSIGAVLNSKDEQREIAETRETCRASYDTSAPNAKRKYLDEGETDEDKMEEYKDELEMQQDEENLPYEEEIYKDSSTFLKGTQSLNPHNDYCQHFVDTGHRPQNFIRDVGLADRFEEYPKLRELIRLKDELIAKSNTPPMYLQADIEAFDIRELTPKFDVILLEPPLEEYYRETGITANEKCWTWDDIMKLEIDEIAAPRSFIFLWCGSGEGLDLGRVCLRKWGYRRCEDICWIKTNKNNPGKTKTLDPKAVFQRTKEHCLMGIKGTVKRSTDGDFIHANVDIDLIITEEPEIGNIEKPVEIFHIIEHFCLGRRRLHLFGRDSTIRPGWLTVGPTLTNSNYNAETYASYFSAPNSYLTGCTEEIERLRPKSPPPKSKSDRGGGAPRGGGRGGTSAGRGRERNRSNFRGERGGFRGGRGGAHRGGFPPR

inhibition at 100 µM ([1]; 100 µM compound, covalent library, 30 min at 25 °C, read-out: DNMT2 inhibition in primary screening): > 90%
pIC50 ([1]; MST-derived, 250 nM DNMT2, 5 µM tRNA, 0.9 µM SAM): 5.39
inhibition of METTL3/14 (selectivity panel) [2]: did not inhibit
kinact ([3]; kinetic FP assay, kobs vs. [I], 120 min at 25 °C): 0.00285 s⁻¹
inhibition of NSUN2 (selectivity panel) [4]: did not inhibit
Compound: C=CC(=O)NC(=O)NC12CC3CC(CC(C3)C1)C2 [Cpd 11, 1-(adamantan-1-yl)-3-(prop-2-enoyl)urea]
displacement of FTAD tracer / binding to SAH-binding site ([3]; FP library screening with FTAD tracer): binding to the SAH-binding site; also recorded: displaced the FP-probe FTAD effectively
time dependence of FTAD displacement ([3]; kinetic FP assay): time-dependent DNMT2 inhibition; also recorded: time-dependent displacement of the FTAD FP-tracer
